Laboratory results reported in patent publication US20070142317A1, “Topical composition for treatment of skin disorders” (QLT USA, Inc., priority 2003, published 2007).

Tested on: U937 monocytoid cells
Test: TUNEL assay, simultaneous exposure to dCF and dAd (Example 22)
Type: cell-based
Procedure: Methods Simultaneous Exposure—U937 monocytoid cells were cultured in the presence of 0, 1, 2.5, 10, 20, 50, 100, 150, 200, and 250 μM dAdo for 2 days. […] At the end of the treatment period, the cells were harvested for analysis by a TUNEL assay, a flow-cytometry-based method to quantify the percentage of cells that have undergone apoptosis. The level of apoptosis is expressed as “% FITC shift”. As a positive control, the cells were exposed to 5 mM camptothecin for 2 days.

[1] = dAd 10 μM alone (dCF 0), 2 days
[2] = dAd 20 μM alone (dCF 0), 2 days
[3] = dAd 50 μM alone (dCF 0), 2 days
[4] = dAd 100 μM alone (dCF 0), 2 days
[5] = dAd 150 μM alone (dCF 0), 2 days
[6] = dAd 200 μM alone (dCF 0), 2 days
[7] = dAd 250 μM alone (dCF 0), 2 days

Nc1ncnc2c1ncn2[C@H]1C[C@H](O)[C@@H](CO)O1 [dAd, 2′-deoxyadenosine]
concentration at which dAd itself induces apoptosis (U937 cells, no dCF): 100 to 200 µM | concentrations at which dAd alone is toxic (absence of dCF, 2 days): > 100 µM | % FITC Shift (dAd 1 μM alone (dCF 0), 2 days): 1.2% | % PI Shift (dAd 1 μM alone (dCF 0), 2 days): 1.1% | % FITC Shift [1]: 1.8% | % PI Shift [1]: 1.5% | % FITC Shift [2]: 1.7% | % PI Shift [2]: 1.8% | % FITC Shift [3]: 1.5% | % PI Shift [3]: 3.8% | % FITC Shift [4]: 33.7% | % PI Shift [4]: 15.9% | % FITC Shift [5]: 78.3% | % PI Shift [5]: 17.3% | % FITC Shift [6]: 62.6% | % PI Shift [6]: 19.7% | % FITC Shift [7]: 66.4% | % PI Shift [7]: 17.8%
